The source of these data is patent US20210122730A1, “GLUCOCORTICOID RECEPTOR MODULATORS” (ORIC Pharmaceuticals, Inc., priority 2017, published 2021).

Where only a bound is given, the exact number is not on record here.

The target of the assay is T1, GR (Homo sapiens, UniProt P04150).
T1 construct: expressed in transfected cells; host or cells: CHO-K1
T1 sequence (P04150 1-777): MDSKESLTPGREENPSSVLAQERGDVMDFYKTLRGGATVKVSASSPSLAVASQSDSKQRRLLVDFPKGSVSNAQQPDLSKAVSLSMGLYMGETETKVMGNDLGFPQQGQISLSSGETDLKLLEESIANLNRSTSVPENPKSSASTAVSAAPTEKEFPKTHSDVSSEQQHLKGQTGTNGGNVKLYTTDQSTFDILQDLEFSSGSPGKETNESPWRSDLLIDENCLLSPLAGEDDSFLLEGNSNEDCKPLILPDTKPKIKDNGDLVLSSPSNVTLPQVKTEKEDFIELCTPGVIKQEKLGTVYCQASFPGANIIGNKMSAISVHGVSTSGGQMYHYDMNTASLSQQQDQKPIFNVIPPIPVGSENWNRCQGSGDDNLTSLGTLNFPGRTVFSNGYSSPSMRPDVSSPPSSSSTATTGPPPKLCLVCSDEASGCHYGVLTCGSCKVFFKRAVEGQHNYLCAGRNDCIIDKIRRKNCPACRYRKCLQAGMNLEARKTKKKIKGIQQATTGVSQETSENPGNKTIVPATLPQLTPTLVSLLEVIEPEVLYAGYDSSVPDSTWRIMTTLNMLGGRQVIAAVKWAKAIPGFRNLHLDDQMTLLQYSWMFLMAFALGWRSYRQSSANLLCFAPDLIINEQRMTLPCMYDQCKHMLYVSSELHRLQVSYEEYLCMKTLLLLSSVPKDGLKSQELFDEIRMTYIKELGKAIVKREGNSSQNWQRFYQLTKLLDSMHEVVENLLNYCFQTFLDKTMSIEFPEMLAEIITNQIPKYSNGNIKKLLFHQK
Description: In Vitro GR Luciferase Reporter Assay (antagonist mode, CHO-K1-GR-MMTV-Luc reporter cells). The assay is classed as cell-based. The conditions noted are these: antagonist mode, 10 nM Dexamethasone. The essentials: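 Antagonist mode: compounds (8 serial 1:5 dilutions) added to GR-MMTV-luciferase CHO-K1 reporter cells co-exposed to 10 nM dexamethasone final, in phenol red-free DMEM plus 10% CSS. After roughly 18-24 h at 37° C, OneGlo luminescence read and IC50 calculated.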
Background: A reporter such as luciferase makes a cellular process visible.

On to `Cn1cc(S(=O)(=O)N(CC(C)(C)O)[C@H]2CCC3=Cc4c(cnn4-c4ccc(F)cc4)C[C@]3(C(=O)c3ncc(C(F)(F)F)s3)C2)nn1` [Example 301, N-((4aS,6S)-1-(4-fluorophenyl)-4a-(5-(trifluoromethyl)thiazole-2-carbonyl)-4,4a,5,6,7,8-hexahydro-1H-benzo[f]indazol-6-yl)-N-(2-hydroxy-2-methylpropyl)-1-methyl-1H-1,2,3-triazole-4-sulfonamide], for which the IC50 (commonly the concentration that inhibits the measured activity by half) was no more than 100 nM.
`CC(C)(O)CN([C@H]1CCC2=Cc3c(cnn3-c3ccc(F)cc3)C[C@]2(C(=O)c2cc(C(F)(F)F)ccn2)C1)S(=O)(=O)c1ccc(Cl)nc1` [Example 302, 6-chloro-N-((4aS,6S)-1-(4-fluorophenyl)-4a-(4-(trifluoromethyl)picolinoyl)-4,4a,5,6,7,8-hexahydro-1H-benzo[f]indazol-6-yl)-N-(2-hydroxy-2-methylpropyl)pyridine-3-sulfonamide] registered an IC50 of no more than 100 nM.
Under `CC(C)(O)CN([C@H]1CCC2=Cc3c(cnn3-c3ccc(F)cc3)C[C@]2(C(=O)c2ncc(C(F)(F)F)s2)C1)S(=O)(=O)c1ccc(Cl)nc1` [Example 303, 6-chloro-N-((4aS,6S)-1-(4-fluorophenyl)-4a-(5-(trifluoromethyl)thiazole-2-carbonyl)-4,4a,5,6,7,8-hexahydro-1H-benzo[f]indazol-6-yl)-N-(2-hydroxy-2-methylpropyl)pyridine-3-sulfonamide] stands no more than 100 nM; under `CC(C)(O)CN([C@H]1CCC2=Cc3c(cnn3-c3ccc(F)cc3)C[C@]2(C(=O)c2cc(F)ccn2)C1)S(=O)(=O)c1ccc(Cl)nc1` [Example 304, 6-chloro-N-((4aS,6S)-1-(4-fluorophenyl)-4a-(4-fluoropicolinoyl)-4,4a,5,6,7,8-hexahydro-1H-benzo[f]indazol-6-yl)-N-(2-hydroxy-2-methylpropyl)pyridine-3-sulfonamide], no more than 100 nM; under `Cn1cc(S(=O)(=O)[C@H]2CCC3=Cc4c(cnn4-c4ccc(F)cc4)C[C@]3(C(=O)c3cc(F)ccn3)C2)cn1` [Example 314, ((4aS,6S)-1-(4-fluorophenyl)-6-((1-methyl-1H-pyrazol-4-yl)sulfonyl)-1,4,5,6,7,8-hexahydro-4aH-benzo[f]indazol-4a-yl)(4-fluoropyridin-2-yl)methanone], no more than 100 nM.
Under `Cn1cnc(S(=O)(=O)N(CC2CC2)[C@H]2CCC3=Cc4c(cnn4-c4ccc(F)cc4)C[C@]3(C(=O)c3cc(C(F)(F)F)ccn3)C2)n1` [Example 316, N-(cyclopropylmethyl)-N-((4aS,6S)-1-(4-fluorophenyl)-4a-(4-(trifluoromethyl)picolinoyl)-4,4a,5,6,7,8-hexahydro-1H-benzo[f]indazol-6-yl)-1-methyl-1H-1,2,4-triazole-3-sulfonamide] stands no more than 100 nM.
Under `Cn1cc(S(=O)(=O)[C@H]2CCC3=Cc4c(cnn4-c4ccc(F)cc4)C[C@]3(C(=O)c3cc(Cl)ccn3)C2)cn1` [Example 317, (4-chloropyridin-2-yl)((4aS,6S)-1-(4-fluorophenyl)-6-((1-methyl-1H-pyrazol-4-yl)sulfonyl)-1,4,5,6,7,8-hexahydro-4aH-benzo[f]indazol-4a-yl)methanone] stands no more than 100 nM; under `Cn1cc(S(=O)(=O)N(CC(F)(F)F)[C@H]2CCC3=Cc4c(cnn4-c4ccc(F)cc4)C[C@]3(C(=O)c3cc(C(F)(F)F)ccn3)C2)nn1` [Example 318, N-((4aS,6S)-1-(4-fluorophenyl)-4a-(4-(trifluoromethyl)picolinoyl)-4,4a,5,6,7,8-hexahydro-1H-benzo[f]indazol-6-yl)-1-methyl-N-(2,2,2-trifluoroethyl)-1H-1,2,3-triazole-4-sulfonamide], no more than 100 nM; under `CC(C)N([C@H]1CCC2=Cc3c(cnn3-c3ccc(F)cc3)C[C@]2(C(=O)c2cc(Cl)ccn2)C1)S(=O)(=O)c1ccc(Cl)nc1` [Example 323, 6-chloro-N-((4aS,6S)-4a-(4-chloropicolinoyl)-1-(4-fluorophenyl)-4,4a,5,6,7,8-hexahydro-1H-benzo[f]indazol-6-yl)-N-isopropylpyridine-3-sulfonamide], no more than 100 nM.
In turn, `Cc1nc(S(=O)(=O)N(C2CC2)[C@H]2CCC3=Cc4c(cnn4-c4ccc(F)cc4)C[C@]3(C(=O)c3ncc(C(F)(F)F)s3)C2)cn1C` [Example 336, N-cyclopropyl-N-((4aS,6S)-1-(4-fluorophenyl)-4a-(5-(trifluoromethyl)thiazole-2-carbonyl)-4,4a,5,6,7,8-hexahydro-1H-benzo[f]indazol-6-yl)-1,2-dimethyl-1H-imidazole-4-sulfonamide] came in with an IC50 of no more than 100 nM.
`Cn1cc(S(=O)(=O)CC2CCC3=Cc4c(cnn4-c4ccc(F)cc4)C[C@]3(C(=O)c3ccc(C(F)(F)F)cn3)C2)cn1` (stereo partly drawn) [Example 340, ((4aR)-1-(4-fluorophenyl)-6-(((1-methyl-1H-pyrazol-4-yl)sulfonyl)methyl)-1,4,5,6,7,8-hexahydro-4aH-benzo[f]indazol-4a-yl)(5-(trifluoromethyl)pyridin-2-yl)methanone] displayed an IC50 of no more than 100 nM.
On to `C[C@]1(O)C[C@@H](N([C@H]2CCC3=Cc4c(cnn4-c4ccc(F)cc4)C[C@]3(C(=O)c3cc(F)ccn3)C2)S(=O)(=O)c2ccc(F)cc2)C1` [Example 343, 4-fluoro-N-((4aS,6S)-1-(4-fluorophenyl)-4a-(4-fluoropicolinoyl)-4,4a,5,6,7,8-hexahydro-1H-benzo[f]indazol-6-yl)-N-((1s,3R)-3-hydroxy-3-methylcyclobutyl)benzenesulfon-amide], for which the IC50 is no more than 100 nM.
Under `Cn1ccc(S(=O)(=O)N(CC(F)F)[C@H]2CCC3=Cc4c(cnn4-c4ccc(F)cc4)C[C@]3(C(=O)c3cc(Cl)ccn3)C2)n1` [Example 345, N-((4aS,6S)-4a-(4-chloropicolinoyl)-1-(4-fluorophenyl)-4,4a,5,6,7,8-hexahydro-1H-benzo[f]indazol-6-yl)-N-(2,2-difluoroethyl)-1-methyl-1H-pyrazole-3-sulfonamide] stands no more than 100 nM; under `O=C(c1cc(F)ccn1)[C@]12Cc3cnn(-c4ccc(F)cc4)c3C=C1CC[C@H](N(CC(F)F)S(=O)(=O)c1ccc(Cl)nc1)C2` [Example 351, 6-chloro-N-(2,2-difluoroethyl)-N-((4aS,6S)-1-(4-fluorophenyl)-4a-(4-fluoropicolinoyl)-4,4a,5,6,7,8-hexahydro-1H-benzo[f]indazol-6-yl)pyridine-3-sulfonamide], no more than 100 nM; under `O=C(c1cc(Cl)ccn1)[C@]12Cc3cnn(-c4ccc(F)cc4)c3C=C1CC[C@H](N(CC(F)F)S(=O)(=O)c1ccc(Cl)nc1)C2` [Example 352, 6-chloro-N-((4aS,6S)-4a-(4-chloropicolinoyl)-1-(4-fluorophenyl)-4,4a,5,6,7,8-hexahydro-1H-benzo[f]indazol-6-yl)-N-(2,2-difluoroethyl)pyridine-3-sulfonamide], no more than 100 nM.
`Cn1ccc(S(=O)(=O)CC2CCC3=Cc4c(cnn4-c4ccc(F)cc4)C[C@]3(C(=O)c3cc(C(F)(F)F)ccn3)C2)n1` (stereo partly drawn) [Example 353, ((4aR)-1-(4-fluorophenyl)-6-(((1-methyl-1H-pyrazol-3-yl)sulfonyl)methyl)-1,4,5,6,7,8-hexahydro-4aH-benzo[f]indazol-4a-yl)(4-(trifluoromethyl)pyridin-2-yl)methanone] returned an IC50 of no more than 100 nM.
Under `Cn1ccc(S(=O)(=O)CC2CCC3=Cc4c(cnn4-c4ccc(F)cc4)C[C@]3(C(=O)c3ccc(C(F)(F)F)cn3)C2)n1` (stereo partly drawn) [Example 360, ((4aR)-1-(4-fluorophenyl)-6-(((1-methyl-1H-pyrazol-3-yl)sulfonyl)methyl)-1,4,5,6,7,8-hexahydro-4aH-benzo[f]indazol-4a-yl)(5-(trifluoromethyl)pyridin-2-yl)methanone] stands no more than 100 nM; under `Cn1ccc(S(=O)(=O)CC2CCC3=Cc4c(cnn4-c4ccc(F)cc4)C[C@]3(C(=O)c3ncc(C(F)(F)F)s3)C2)n1` (stereo partly drawn) [Example 361, ((4aR)-1-(4-fluorophenyl)-6-(((1-methyl-1H-pyrazol-3-yl)sulfonyl)methyl)-1,4,5,6,7,8-hexahydro-4aH-benzo[f]indazol-4a-yl)(5-(trifluoromethyl)thiazol-2-yl)methanone], no more than 100 nM; under `Cn1ccc(S(=O)(=O)CC2CCC3=Cc4c(cnn4-c4ccc(F)cc4)C[C@]3(C(=O)c3cc(F)ccn3)C2)n1` (stereo partly drawn) [Example 362, ((4aR)-1-(4-fluorophenyl)-6-(((1-methyl-1H-pyrazol-3-yl)sulfonyl)methyl)-1,4,5,6,7,8-hexahydro-4aH-benzo[f]indazol-4a-yl)(4-fluoropyridin-2-yl)methanone], no more than 100 nM.
Under `Cn1ccc(S(=O)(=O)CC2CCC3=Cc4c(cnn4-c4ccc(F)cc4)C[C@]3(C(=O)c3cc(Cl)ccn3)C2)n1` (stereo partly drawn) [Example 364, (4-chloropyridin-2-yl)((4aR)-1-(4-fluorophenyl)-6-(((1-methyl-1H-pyrazol-3-yl)sulfonyl)methyl)-1,4,5,6,7,8-hexahydro-4aH-benzo[f]indazol-4a-yl)methanone] stands no more than 100 nM.
